Values quoted from earlier work, collected in PubChem BioAssay AID1259409 (Chemical Carcinogenesis Research Information System (CCRIS), 2018).
Where a SMILES comes first, the peptide text is derived from it.

Test system: rodent chemically induced tumor inhibition, incidence and multiplicity
Assay: CCRIS tumor inhibitor studies
Text: The CCRIS database contains chemical records with carcinogenicity, mutagenicity, tumor promotion, and tumor inhibition test results. It was developed by the National Cancer Institute (NCI). Data are derived from studies cited in primary journals, current awareness tools, NCI reports, and other sources. Test results have been reviewed by experts in carcinogenesis and mutagenesis.
CCRIS provides historical information from the years 1985 - 2011. It is no longer updated.
This is an archive assay for CCRIS tumor inhibitor studies.

For `COc1ccc([SeH])cc1`, the “tumour outcome (control, treated, inhibition, significance)” value (Carcinogen: BENZO[A]PYRENE, 50-32-8, Dose [Inhibitor]: 0, 3.3 UMOL/G DIET BEGINNING 1 WK PRIOR TO CARCINOGEN TREATMENT AND CONTINUING FOR 1 WK POST CARCINOGEN TREATMENT FOLLOW, Route [Inhibitor]: ORAL, Species: MOUSE, Strain/Sex: CD-1/FEMALE, Target Tissue: Type of Lesion: FORESTOMACH: PAPILLOMA, Dose [Carcinogen]: 1 MG IN 0.2 ML CORN OIL 2/WK FOR 4 WK, Promoter: NONE USED) is listed as 85%, 75%, 12%, not significant.

In the case of `N[C@@H](CCC(=O)O)C(=O)N[C@@H](Cc1c[nH]c2ccccc12)C(=O)O` (H-Glu-Trp-OH), the “tumour outcome (control, treated, inhibition, significance)” value (Carcinogen: NONE, Dose [Inhibitor]: 5 UG 1X/D 5 D/WK FOR 12 MONTHS (STUDY DURATION: 1200 D), Route [Inhibitor]: SUBCUTANEOUS, Species: RAT, Strain/Sex: LIO/FEMALE, Target Tissue: Type of Lesion: TUMORS) is given as 12/31 (38.7%), 10/40 (25.0%), 35%, not significant.

For `COc1ccc2cc1Oc1ccc(cc1)C[C@H]1c3c(cc4c(c3Oc3cc5c(cc3OC)CCN(C)[C@@H]5C2)OCO4)CCN1C`, the “tumour outcome (control, treated, inhibition, significance)” value (Carcinogen: 7,12-DIMETHYLBENZ[A]ANTHRACENE, 57-97-6, Dose [Inhibitor]: 0, 0.005% IN DIET BEGINNING 1 D POST CARCINOGEN TREATMENT AND CONTINUING FOR DURATION OF STUDY (STUDY DURATION: 18 WK), Route [Inhibitor]: ORAL, Species: MOUSE, Strain/Sex: ICR/FEMALE, Target Tissue: Type of Lesion: SKIN: PAPILLOMA, Dose [Carcinogen]: 50 UG IN 100 µL ACETONE ONCE, Promoter: 12-O-TETRADECANOYLPHORBOL-13-ACETATE, 16561-29-8) is given as 100%, 95%, 5%, not significant, the “tumour outcome (control, treated, inhibition, significance)” value (Carcinogen: 7,12-DIMETHYLBENZ[A]ANTHRACENE, 57-97-6, Dose [Inhibitor]: 0, 0.005% IN DIET BEGINNING 1 D POST CARCINOGEN TREATMENT AND CONTINUING FOR DURATION OF STUDY (STUDY DURATION: 25 WK), Route [Inhibitor]: ORAL, Species: MOUSE, Strain/Sex: ICR/FEMALE, Target Tissue: Type of Lesion: SKIN: PAPILLOMA, Dose [Carcinogen]: 50 UG IN 100 µL ACETONE ONCE, Promoter: 12-O-TETRADECANOYLPHORBOL-13-ACETATE, 16561-29-8, MEZEREIN, 34807-41-5, Promoter: 12-O-TETRADECANOYLPHORBOL-13-ACETATE, 16561-29-8, MEZEREIN, 34807-41-5) is given as 75%, 45%, 40%, not calculated and the “tumour outcome (control, treated, inhibition, significance)” value (Carcinogen: 7,12-DIMETHYLBENZ[A]ANTHRACENE, 57-97-6, Dose [Inhibitor]: 0, 2 UMOL 2/WK 30 MIN PRIOR TO EACH PROMOTER DOSE BEGINNING 1 WK POST CARCINOGEN DOSE (STUDY DURATION: 18 WK), Route [Inhibitor]: DERMAL, Species: MOUSE, Strain/Sex: ICR/FEMALE, Target Tissue: Type of Lesion: SKIN: PAPILLOMA, Dose [Carcinogen]: 50 UG ONCE, Promoter: 12-O-TETRADECANOYLPHORBOL-13-ACETATE, 16561-29-8) is given as 100%, 27%, 73%, not calculated. The “tumour outcome (control, treated, inhibition, significance)” value (Carcinogen: 7,12-DIMETHYLBENZ[A]ANTHRACENE, 57-97-6, Dose [Inhibitor]: 0, 20 UMOL/MOUSE 2/WK FOR 18 WK APPLIED 5 MIN PRIOR TO EACH PROMOTER DOSE (STUDY DURATION: 19 WK), Route [Inhibitor]: DERMAL, Species: MOUSE, Strain/Sex: CD-1/FEMALE, Target Tissue: Type of Lesion: SKIN: PAPILLOMA, Dose [Carcinogen]: 100 UG IN 200 µL ACETONE ONCE, Promoter: 12-O-TETRADECANOYLPHORBOL-13-ACETATE, 16561-29-8) was 100%, 30%, 70%, p<0.01.

For `Cc1ccc(-c2cc(C(F)(F)F)nn2-c2ccc(S(N)(=O)=O)cc2)cc1`, the “tumour outcome (control, treated, inhibition, significance)” value (Carcinogen: N-BUTYL-N-N(4-4-HYDROXYBUTYL)-NITROSAMINE [3817-11-6], Dose [Inhibitor]: 200 MG/KG IN DIET FOR 36 WK BEGINNING 1 WK PRIOR TO FIRST CARCINOGEN DOSE (STUDY DURATION: 36 WK), Route [Inhibitor]: ORAL, Species: MOUSE, Strain/Sex: B6D2F1/MALE, Target Tissue: Type of Lesion: URINARY BLADDER: TUMOR, Dose [Carcinogen]: 7.5 MG IN 0.1 ML 20% ETHANOL 1X/WK FOR 12 WK (STUDY DURATION: 36 WK), Promoter: NONE) is listed as 51%, 29%, 43%, significance level not shown, the “tumour outcome (control, treated, inhibition, significance)” value (Carcinogen: N-BUTYL-N-N(4-4-HYDROXYBUTYL)-NITROSAMINE [3817-11-6], Dose [Inhibitor]: 500 MG/KG IN DIET FOR 27 WK BEGINNING 1 WK POST LAST CARCINOGEN DOSE (STUDY DURATION: 8 MONTHS), Route [Inhibitor]: ORAL, Species: RAT, Strain/Sex: F344/FEMALE, Target Tissue: Type of Lesion: URINARY BLADDER: TUMOR, Dose [Carcinogen]: 150 MG IN 0.5 ML 20% ETHANOL 2X/WK FOR 8 WK (STUDY DURATION: 8 MONTHS), Promoter: NONE) is listed as 57%, 4%, 93%, significance level not shown and the “tumour outcome (control, treated, inhibition, significance)” value (Carcinogen: N-BUTYL-N-N(4-4-HYDROXYBUTYL)-NITROSAMINE [3817-11-6], Dose [Inhibitor]: 500 MG/KG IN DIET FOR 36 WK BEGINNING 1 WK PRIOR TO FIRST CARCINOGEN DOSE (STUDY DURATION: 36 WK), Route [Inhibitor]: ORAL, Species: MOUSE, Strain/Sex: B6D2F1/MALE, Target Tissue: Type of Lesion: URINARY BLADDER: TUMOR, Dose [Carcinogen]: 7.5 MG IN 0.1 ML 20% ETHANOL 1X/WK FOR 12 WK (STUDY DURATION: 36 WK), Promoter: NONE) is listed as 51%, 24%, 53%, significance level not shown. For the same compound, the “tumour outcome (control, treated, inhibition, significance)” value (Carcinogen: N-BUTYL-N-N(4-4-HYDROXYBUTYL)-NITROSAMINE [3817-11-6], Dose [Inhibitor]: 500 MG/KG IN DIET FOR 36 WK BEGINNING 1 WK PRIOR TO FIRST CARCINOGEN DOSE (STUDY DURATION: 36 WK), Route [Inhibitor]: ORAL, Species: RAT, Strain/Sex: F344/FEMALE, Target Tissue: Type of Lesion: URINARY BLADDER: TUMOR, Dose [Carcinogen]: 150 MG IN 0.5 ML 20% ETHANOL 2X/WK FOR 8 WK (STUDY DURATION: 36 WK), Promoter: NONE) was 17/30 (57%), 4/28 (14%), 75%, significance level not shown, the “tumour outcome (control, treated, inhibition, significance)” value (Carcinogen: N-BUTYL-N-N(4-4-HYDROXYBUTYL)-NITROSAMINE [3817-11-6], Dose [Inhibitor]: 1000 MG/KG IN DIET FOR 27 WK BEGINNING 1 WK POST LAST CARCINOGEN DOSE (STUDY DURATION: 8 MONTHS), Route [Inhibitor]: ORAL, Species: RAT, Strain/Sex: F344/FEMALE, Target Tissue: Type of Lesion: URINARY BLADDER: TUMOR, Dose [Carcinogen]: 150 MG IN 0.5 ML 20% ETHANOL 2X/WK FOR 8 WK (STUDY DURATION: 8 MONTHS), Promoter: NONE) was 57%, 0%, 100%, significance level not shown and the “tumour outcome (control, treated, inhibition, significance)” value (Carcinogen: N-BUTYL-N-N(4-4-HYDROXYBUTYL)-NITROSAMINE [3817-11-6], Dose [Inhibitor]: 1000 MG/KG IN DIET FOR 36 WK BEGINNING 1 WK PRIOR TO FIRST CARCINOGEN DOSE (STUDY DURATION: 36 WK), Route [Inhibitor]: ORAL, Species: RAT, Strain/Sex: F344/FEMALE, Target Tissue: Type of Lesion: URINARY BLADDER: TUMOR, Dose [Carcinogen]: 150 MG IN 0.5 ML 20% ETHANOL 2X/WK FOR 8 WK (STUDY DURATION: 36 WK), Promoter: NONE) was 17/30 (57%), 6/29 (21%), 63%, significance level not shown. For the same compound, the “tumour outcome (control, treated, inhibition, significance)” value (Carcinogen: N-BUTYL-N-N(4-4-HYDROXYBUTYL)-NITROSAMINE [3817-11-6], Dose [Inhibitor]: 1250 MG/KG IN DIET FOR 36 WK BEGINNING 1 WK PRIOR TO FIRST CARCINOGEN DOSE (STUDY DURATION: 36 WK), Route [Inhibitor]: ORAL, Species: MOUSE, Strain/Sex: B6D2F1/MALE, Target Tissue: Type of Lesion: URINARY BLADDER: TUMOR, Dose [Carcinogen]: 7.5 MG IN 0.1 ML 20% ETHANOL 1X/WK FOR 12 WK (STUDY DURATION: 36 WK), Promoter: NONE) was 51%, 12%, 76%, significance level not shown and the outcome (Carcinogen: N-nitrosodiethylamine (55-18-5), Dose [Inhibitor]: 1500 mg/kg in diet for 38 wk, study duration 38 wk, Route [Inhibitor]: Oral, Species: Rat, Strain/Sex: Wistar/Male, Target Tissue: Type of Lesion: Liver: Neoplasia, Dose [Carcinogen]: 100 mg/l in drinking water for 4 mo, Promoter: None) was 91.7, 65.2, p<0.05.

In the case of `Cc1ccc(Cl)c(Nc2ccccc2C(=O)O)c1Cl`, the “tumour outcome (control, treated, inhibition, significance)” value (Carcinogen: 1,2-DIMETHYLHYDRAZINE DIHYDROCHLORIDE, 306-37-6, Dose [Inhibitor]: 50 MG/L TAP WATER DAILY FOR 32 WK STARTING SIMULTANEOUSLY WITH CARCINOGEN TREATMENT (STUDY DURATION: 32 WK), Route [Inhibitor]: ORAL, Species: RAT, Strain/Sex: SPRAGUE-DAWLEY/MALE, Target Tissue: Type of Lesion: LARGE INTESTINE: TUMOR, Dose [Carcinogen]: 20 MG/KG BW WEEKLY FOR 20 WK, Promoter: NONE USED) is listed as 88%, 90%, -2%, not significant and the “tumour outcome (control, treated, inhibition, significance)” value (Carcinogen: 1,2-DIMETHYLHYDRAZINE DIHYDROCHLORIDE, 306-37-6, Dose [Inhibitor]: 50 MG/L TAP WATER DAILY FOR 32 WK STARTING SIMULTANEOUSLY WITH CARCINOGEN TREATMENT (STUDY DURATION: 32 WK), Route [Inhibitor]: ORAL, Species: RAT, Strain/Sex: SPRAGUE-DAWLEY/MALE, Target Tissue: Type of Lesion: SMALL INTESTINE: TUMOR, Dose [Carcinogen]: 20 MG/KG BW WEEKLY FOR 20 WK, Promoter: NONE USED) is listed as 46%, 35%, 24%, not significant.
